Structures can show the parent of a compound that is named as a salt. Where two headings read alike, the source gives them in different places.
Tested on: LMP1 expression in Kem I cells
Test: microbe, parasite or virus in culture
Type: cell-based, EBV
Conditions: for fold induction at 2.5 µM: human gammaherpesvirus 4, 48 h; for Average LMP1 Fold Increase / Replicate 1-LMP1 Fold Increase / Replicate 2-LMP1 Fold Increase: Kem I cells, 2.5 uM, 48 hours; for Average LMP1 Fold Increase: average of replicates 1 and 2; for Replicate 1-LMP1 Fold Increase / Replicate 2-LMP1 Fold Increase: fold change in LMP1 transcript vs vehicle
[1] = read-out: Average LMP1 Fold Increase, Kem I cells, 2.5 uM, 48 hours, average of replicates 1 and 2
[2] = read-out: Replicate 1-LMP1 Fold Increase, Kem I cells, 2.5 uM, 48 hours, fold change in LMP1 transcript vs vehicle
[3] = read-out: Replicate 2-LMP1 Fold Increase, Kem I cells, 2.5 uM, 48 hours, fold change in LMP1 transcript vs vehicle

Compound	fold induction at 2.5 µM [1]	fold induction at 2.5 µM [2]	fold induction at 2.5 µM [3]	Average LMP1 Fold Increase	Replicate 1-LMP1 Fold Increase	Replicate 2-LMP1 Fold Increase
Cc1c(C(=O)NN2CCCCC2)nn(-c2ccc(Cl)cc2Cl)c1-c1ccc(Cl)cc1 [Rimonabant]	0.39	0.24	0.54	–	–	–
O=C(NC[C@H]1CN(c2ccc(N3CCOCC3=O)cc2)C(=O)O1)c1ccc(Cl)s1 [Rivaroxaban]	0.14	0.08	0.2	–	–	–
CN(C)CCc1c[nH]c2ccc(Cn3cncn3)cc12 [Rizatriptan Benzoate]	0.15	0.1	0.2	–	–	–
COc1ccc(C2CNC(=O)C2)cc1OC1CCCC1 (stereo not drawn) [Rolipram]	0.94	1.13	0.75	–	–	–
COc1cc2c(cc1OC)[C@@H]1Cc3ccc(OC)c(OC)c3CN1CC2 [Rotundine]	0.28	0.3	0.27	–	–	–
CC(=O)OCC(=O)NCCCOc1cccc(CN2CCCCC2)c1 [Roxatidine Acetate HCl]	0.2	0.15	0.24	–	–	–
N#CC[C@H](C1CCCC1)n1cc(-c2ncnc3[nH]ccc23)cn1 [Ruxolitinib (INCB018424)]	–	–	–	0.41	0.48	0.34
Cc1nn(-c2ccccc2)c(C)c1/C=N/N1CCN(Cc2ccccc2)CC1 [SANT-1]	–	–	–	0.64	0.31	0.97
CCn1c(N)c(C(=O)NC)c(=O)c2ccc(C#C[C@@](C)(O)COC)nc21 [SAR131675]	–	–	–	0.40	0.30	0.49
C[S+]([O-])c1ccc(-c2nc(-c3ccc(F)cc3)c(-c3ccncc3)[nH]2)cc1 (stereo not drawn) [SB203580]	–	–	–	0.57	0.54	0.59
Cc1cc(NC(=O)Nc2ccc(N(C)C)cc2)c2cc(F)cc(F)c2n1 [SB408124]	–	–	–	0.67	0.81	0.53
O=C1NC(=O)C(c2ccccc2[N+](=O)[O-])=C1Nc1ccc(O)c(Cl)c1 [SB415286]	–	–	–	0.71	0.59	0.84
NC(=O)c1ccc(-c2nc(-c3ccccn3)c(-c3ccc4c(c3)OCO4)[nH]2)cc1 [SB431542]	–	–	–	0.71	0.82	0.61
O=C(Nc1ccccc1Br)N[C@@H]1CCN(c2ccc(C(F)(F)F)cn2)C1 [SB705498]	–	–	–	0.43	0.38	0.48
O=S(=O)(c1ccccc1)c1cnc2c(N3CCNCC3)cccc2c1 [SB742457]	–	–	–	0.82	1.09	0.55
Cc1ccc(C(=O)N(CCCN)[C@@H](c2oc3cc(Cl)ccc3c(=O)c2Cc2ccccc2)C(C)C)cc1 [SB743921]	–	–	–	1.76	1.10	2.41
O=C(NNc1nc2cc(F)ccc2n2cccc12)c1cnccn1 [SC144]	–	–	–	1.51	1.00	2.02
CC(C)N(CCCNC(=O)Nc1ccc(C(C)(C)C)cc1)C[C@H]1O[C@@H](n2cc(Br)c3c(N)ncnc32)[C@H](O)[C@@H]1O [SGC 0946]	0.29	0.26	0.31	–	–	–
Cc1cc(Nc2ccc(NC(=O)c3ccc(Nc4ccnc5ccccc45)cc3)cc2)nc(N)n1 [SGI-1027]	–	–	–	53.53	13.12	93.95
CN1CCC(CNc2ccc3ncc(-c4cccc(OC(F)(F)F)c4)n3n2)CC1 [SGI-1776 free base]	–	–	–	1.26	1.94	0.57

Compound	fold induction at 2.5 µM [1]	fold induction at 2.5 µM [2]	fold induction at 2.5 µM [3]	Average LMP1 Fold Increase	Replicate 1-LMP1 Fold Increase	Replicate 2-LMP1 Fold Increase
Oc1ccc(Nc2nc(-c3ccc(Cl)cc3)cs2)cc1 [SKI II]	–	–	–	1.00	0.96	1.03
O=C1NC(=O)/C(=C/c2cccc(C(F)(F)F)c2)S1 [SMI-4a]	–	–	–	0.41	0.29	0.53
CC(C)(C)c1cnc(CSc2cnc(NC(=O)C3CCNCC3)s2)o1 [SNS-032 (BMS-387032)]	–	–	–	23.97	23.56	24.39
Oc1c2ccccc2c2c3c(cccc13)N=N2 [SP600125]	0.6	0.67	0.53	–	–	–
O=C(Nc1cc(C(F)(F)F)ccc1N1CCCCC1)c1ccncc1 [SRPIN340]	–	–	–	0.84	1.24	0.44
O=C(Nc1ccccc1-c1cn2c(CN3CCNCC3)csc2n1)c1cnc2ccccc2n1 [SRT1720]	–	–	–	0.64	0.58	0.70
COc1c(C)c(C(=O)c2ccc(N)c(C(=O)[O-])c2)n2ccccc12.[Na+] [SSR128129E]	–	–	–	0.44	0.36	0.52
Cc1ccc(S(=O)(=O)Cc2nc(-c3ccc(C(=O)NCc4cccnc4)cc3)oc2C)cc1 [STF-118804]	–	–	–	0.10	0.08	0.11
Cc1[nH]c(/C=C2\C(=O)Nc3ccc(S(=O)(=O)N(C)c4cccc(Cl)c4)cc32)c(C)c1C(=O)N1CCN(C)CC1 [SU11274]	0.94	1.05	0.82	–	–	–
C[C@H](NCc1ccc(OCc2cccc(F)c2)cc1)C(N)=O [Safinamide Mesylate]	0.95	0.2	1.71	–	–	–
O=C(/C=C/c1ccccc1)NC(NC(=S)Nc1ccc(Cl)cc1)C(Cl)(Cl)Cl (stereo not drawn) [Sal003]	–	–	–	0.64	0.76	0.53
Cn1cnc2c(F)c(Nc3ccc(Br)cc3Cl)c(C(=O)NOCCO)cc21 [Selumetinib (AZD6244)]	–	–	–	0.54	0.64	0.44
CC(C)[C@H](O)C(=O)N[C@@H](C)C(=O)N[C@@H]1C(=O)N(C)CCc2ccccc21 [Semagacestat (LY450139)]	–	–	–	0.45	0.31	0.59
CN[C@H]1CC[C@@H](c2ccc(Cl)c(Cl)c2)c2ccccc21 [Sertraline HCl]	1.07	0.81	1.33	–	–	–
CC(NC(=O)c1ccccc1/N=C/c1c(O)ccc2ccccc12)c1ccccc1 (stereo not drawn) [Sirtinol]	0.6	0.28	0.92	–	–	–
Cc1cc2c(cc1CC(=O)c1sccc1S(=O)(=O)Nc1onc(C)c1Cl)OCO2 [Sitaxentan sodium]	0.25	0.16	0.34	–	–	–
Nc1ccc(C(=O)O)c(O)c1 [Sodium 4-Aminosalicylate]	0.36	0.19	0.53	–	–	–
CNC(=O)c1cc(Oc2ccc(NC(=O)Nc3ccc(Cl)c(C(F)(F)F)c3)cc2)ccn1 [Sorafenib]	0.54	0.43	0.64	–	–	–
CN1CCN(c2nc(C3=C(c4c[nH]c5ccccc45)C(=O)NC3=O)c3ccccc3n2)CC1 [Sotrastaurin]	0.31	0.3	0.31	–	–	–
O=[N+]([O-])c1ccc2c(c1)S(=O)(=O)C=C2 [Stattic]	–	–	–	26.57	50.36	2.79

— US20230053688A1, “METHODS TO ALTER LATENCY IN EBV+ MALIGNANCIES” (Cornell University, priority 2020, published 2023)
